Assay results published in patent publication US10551389B2, “Target binding molecules identified by kinetic target-guided synthesis” (UNIVERSITY OF SOUTH FLORIDA, priority 2013, dated 2020).

Legend:
Bcl-XL = Bcl-XL (Homo sapiens, UniProt Q07817); assay: Inhibition of Bcl-XL (disruption of Bcl-XL/Bim interaction); assay type: binding
Description: (§1) In a subsequent study, a structurally diverse library of forty five thio acids and thirty eight sulfonyl azides (identified above) was screened in parallel against Mcl-1 and Bcl-XL using the above mentioned approach. Several potential hit combinations were identified (Table 3). All of these kinetic TGS hit compounds were synthesized (identified above and in Table 3). All the reactions were performed at 20-30 mg scale. The 9-fluorenylmethyl thioester was placed in a 2.0 mL vial and 3.5% DBU/dry DMF solution was added (per 1 μmol of thioester, 4.7 μL, of 3.5% DBU/dry DMF solution was added) and the reaction was stirred for one minute. Then the sulfonylazide (1 eq to thioester) was added to the reaction mixture and immediately bubbling was observed. After the reaction was completed (approximately one minute, monitored by LC-MS) water (200 μL) was added and the pH was adjusted to 7.0 using 1M HCl solution. The reaction mixture was extracted with DCM until there is no product in the aqueous layer (checked by TLC or LC-MS). The product was purified by flash chromatography. Testing of these acylsulfonamides has shown that the hit compounds disrupt the Bcl-XL/Bim or Mcl-1/Bim interaction (Table 3).

Mcl-1 = Mcl-1 (Homo sapiens, UniProt Q07820); assay: Inhibition of Mcl-1 (disruption of Mcl-1/Bim interaction); assay type: binding; conditions: for inhibition at 25 µM / % Inhibition (25 μM) Mcl-1: compound at 25 μM; for inhibition at 50 µM / % Inhibition (50 μM) Mcl-1: compound at 50 μM
Chain of Mcl-1 (Q07820 whole entry, species assumed): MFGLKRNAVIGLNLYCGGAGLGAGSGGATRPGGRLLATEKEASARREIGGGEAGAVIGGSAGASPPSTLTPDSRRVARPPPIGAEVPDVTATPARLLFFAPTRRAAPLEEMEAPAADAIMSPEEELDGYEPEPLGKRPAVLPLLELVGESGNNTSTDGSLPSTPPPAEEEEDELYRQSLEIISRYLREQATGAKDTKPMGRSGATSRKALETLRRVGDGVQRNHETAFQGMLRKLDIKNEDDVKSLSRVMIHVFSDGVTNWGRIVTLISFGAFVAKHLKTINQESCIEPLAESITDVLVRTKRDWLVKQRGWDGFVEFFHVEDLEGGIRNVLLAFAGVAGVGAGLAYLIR
Description: as §1

Chain of Bcl-XL (Q07817 whole entry, species assumed): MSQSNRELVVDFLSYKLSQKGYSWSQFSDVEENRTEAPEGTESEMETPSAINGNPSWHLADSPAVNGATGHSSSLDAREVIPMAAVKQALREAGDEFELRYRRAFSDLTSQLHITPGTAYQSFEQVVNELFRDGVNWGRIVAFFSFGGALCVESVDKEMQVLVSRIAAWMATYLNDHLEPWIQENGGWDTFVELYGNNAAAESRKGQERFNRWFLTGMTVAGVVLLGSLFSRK

SMILES	% Inhibition (25 μM) Mcl-1 (Mcl-1) [%]	% Inhibition (50 μM) Mcl-1 (Mcl-1) [%]	other results
COc1cccc(CN(CCSc2ccccc2)Cc2ccc(S(=O)(=O)NC(=O)c3ccc(OC(F)(F)F)cc3)cc2)c1 [SZ17TA8]	–	–	inhibition at 25 µM (Bcl-XL; compound at 25 μM): 4.1%; inhibition at 50 µM (Bcl-XL; compound at 50 μM): < 2%; IC50 (Mcl-1): 8.4 µM; inhibition at 25 µM (Mcl-1): 60.5%; inhibition at 50 µM (Mcl-1): 100%
CCOc1ccc(-c2ccc3c(c2)c(C(=O)NS(=O)(=O)c2ccc(CNc4cccc([N+](=O)[O-])c4)cc2)cn3C)cc1F [SZ12TA23]	6.1	21.5	–
CCOc1ccc(-c2ccc3c(c2)c(C(=O)NS(=O)(=O)c2ccc(CNCCSc4ccccc4)cc2)cn3C)cc1F [SZ6TA23]	<2.0	<2.0	–
O=C(NS(=O)(=O)c1ccc(CN(CCSc2ccccc2)Cc2c(F)cccc2Cl)cc1)c1cccc2ccccc12 [SZ15TA7]	–	–	IC50 (Mcl-1): 15.4 µM
COc1cc2c(cc1OC)C(c1ccccc1)N(Cc1ccc(S(=O)(=O)NC(=O)c3ccc(N4CCC(C)(C)CC4)cc3)cc1)CC2 (stereo not drawn) [SZ8TA2]	14.8	24.9	–
COc1cccc(CN(CCSc2ccccc2)Cc2ccc(S(=O)(=O)NC(=O)c3ccc(Cc4ccc(OC)c(OC)c4OC)cc3)cc2)c1 [SZ17TA24]	65.1	74.1	–
Cc1nc(-c2ccccc2)sc1C(=O)NS(=O)(=O)c1ccc(-c2ccc(Oc3ccccc3)cc2)cc1 [SZ35TA3]	18.8	87.2	–
O=C(NS(=O)(=O)c1ccc(-c2ccc(Oc3ccccc3)cc2)cc1)c1cccc2ccccc12 [SZ35TA7]	28.6	87.8	–
CC1(C)CCN(c2ccc(C(=O)NS(=O)(=O)CCN3CCc4ccccc4C3)cc2)CC1 [SZ23TA2]	4.5	<2.0	–
COc1cc2c(cc1OC)C(c1ccccc1)N(Cc1ccc(S(=O)(=O)NC(=O)c3ccc(Cc4ccc(OC)c(OC)c4OC)cc3)cc1)CC2 (stereo not drawn) [SZ8TA24]	43.6	79.2	–
COc1ccc(Cc2ccc(C(=O)NS(=O)(=O)c3ccc(-c4ccc(Oc5ccccc5)cc4)cc3)cc2)c(OC)c1OC [SZ35TA24]	72.3	76.4	–
CCOc1ccc(-c2ccc3c(c2)c(C(=O)NS(=O)(=O)c2ccc(CN4CCN(c5ccccc5)CC4)cc2)cn3C)cc1F [SZ1TA23]	18.7	21.5	–
O=C(NS(=O)(=O)CCN1CCC(Cc2ccccc2)CC1)c1ccc2c(ccn2Cc2ccc(C(F)(F)F)cc2C(F)(F)F)c1 [SZ24TA30]	18.1	11.4	–
CC1(C)CCN(c2ccc(C(=O)NS(=O)(=O)c3ccc(CNc4cccc([N+](=O)[O-])c4)cc3)cc2)CC1 [SZ12TA2]	7.1	54.1	–
O=C(NS(=O)(=O)c1ccc(-c2ccc(Oc3ccccc3)cc2)cc1)c1ccc(CCc2ccccn2)cc1 [SZ35TA17]	18.8	89.2	–
COc1ccccc1-c1ccc(C(=O)NS(=O)(=O)c2ccc(NCCSc3ccccc3)c([N+](=O)[O-])c2)cc1 [SZ4TA21]	44.7	80.6	–
CC(C)(C)c1ccc(-c2ccc(S(=O)(=O)NC(=O)c3ccc(-c4ccccn4)cc3)cc2)cc1 [SZ11TA25]	–	–	inhibition at 25 µM (Mcl-1): 20.1%; inhibition at 50 µM (Mcl-1): 65.8%
COc1ccccc1-c1ccc(C(=O)NS(=O)(=O)c2ccc(-c3ccc(C(F)(F)F)cc3)cc2)cc1 [SZ16TA21]	26.0	80.9	–
NS(=O)(=O)c1ccc(CN(CCSc2ccccc2)Cc2ccc(S(=O)(=O)NC(=O)c3ccc4oc(-c5ccccc5)cc4c3)cc2)cc1 [SZ10TA41]	2.8	12.4	–
COc1ccccc1-c1ccc(C(=O)NS(=O)(=O)c2ccc(CN(CCSc3ccccc3)Cc3ccc(S(N)(=O)=O)cc3)cc2)cc1 [SZ10TA21]	52.3	57.3	–
